Test system: auditory nerve
Protocol: Pigmented guinea pigs of similar weight (350-360 g) were anaesthetised with the neurolept anaesthetic technique (0.06 mg/kg body weight atropine sulphate s.c., 30 mg/kg pentobarbitone i.p., 500 μl/kg Hypnorm i.m.). Additional injections of Hypnorm were given every 40 minutes. Additional doses of pentobarbitone were administered as needed to maintain a non-reflexive state. The heart rate was monitored with a pair of skin electrodes placed on both sides of the thorax. The animals were tracheotomized and artificially respired, and their core temperature was maintained at 38° C. with a heating blanket and a heated head holder.
The middle ear cavity of the ear used for the measurements was opened to reveal the round window. Compound action potentials of the auditory nerve were measured from the cochlear bony ridge in the proximity of the round window membrane using Teflon-coated silver wire coupled to laboratory designed and built extracellular amplifier (James Hartley). Thresholds of the N1 peak of the compound action potentials were estimated visually using 10 ms tone stimuli at a repetition rate of 10 Hz.
For acoustic stimulation sound was delivered to the tympanic membrane by a closed acoustic system comprising two Bruel and Kjaer 4134½″ microphones for delivering tones and a single Bruel and Kjaer 4133½″ microphone for monitoring sound pressure at the tympanum. The microphones were coupled to the ear canal via 1 cm long, 4 mm diameter tubes to a conical speculum, the 1 mm diameter opening of which was placed about 1 mm from the tympanum. The closed sound system was calibrated in situ for frequencies between 1 and 50 kHz. Known sound pressure levels were expressed in dB SPL re 2×10^−5 Pa. All acoustic stimuli in this work were shaped with raised cosines of 0.5 ms duration at the beginning and at the end of stimulation. White noise for acoustical calibration and tone sequences for auditory stimulation were synthesised by a Data Translation 3010 board at 250 kHz sampling rate and delivered to the microphones through low-pass filters (100 kHz cut-off frequency). Signals from the acoustic measuring amplifier (James Hartley) were digitised at 250 kHz sampling rate using the same board and averaged in the time domain. Experimental control, data acquisition and data analysis were performed using a PC with programmes written in MATLAB.
The solution was removed from the round window using paper wicks to observe the wash out effect. […]
In the second experiments, the placement of the same volume of salicylate solution on the round window was followed by stimulation of the ear with oscillating air pressure in the ear canal during a 5-minute period with a consecutive 5-minute period without oscillating air pressure stimulation when the auditory nerve thresholds were measured. […]

O=C([O-])c1ccccc1O.[Na+] [salicylate, sodium salicylate]
time after which the salicylate effect saturated (oscillating pressure 4 Hz in ear canal, total pressure stimulation time, excluding the 5-minute no-pressure periods): 15 to 20 min
effect of salicylate on the auditory nerve threshold (passive diffusion, 5 μl of 100 mM on round window, tone frequencies lower than 5 kHz (approximately apical 55% of cochlear length), FIG. 2A): no effect
increase of threshold response to pure tones with oscillating pressure versus passive diffusion (tones 27, 21, 15, 11, 5, 3 and 1 kHz, particularly low frequencies, pooled data of 5 experiments per protocol, FIG. 4): to a far greater extent
recovery of compound action potential thresholds after washing out of salicylate from the round window (washout after 80 min (passive) or 74 min (oscillating pressure), FIG. 2): Partial recovery

Reference: patent publication US20220304862A1, “Method And Device For Substance Delivery To The Inner Ear” (UNIVERSITY OF BRIGHTON, priority 2019, published 2022)
